Reference: PMC6510822, “Identification of anticancer OATP2B1 substrates by an in vitro triple-fluorescence-based cytotoxicity screen” (Archives of Toxicology, 2019)
Where two headings read alike, the source gives them in different places. Marks after values point to notes of the source that are not given here.

Columns and labels:
[1] = system: Mes-Sa cells; assay: Fluorescence-based cytotoxicity assay, parental Mes-Sa mCh; details: fluorescent protein based assay
[2] = system: Mes-Sa-B1 cells; assay: PrestoBlue-based cytotoxicity assay, Mes-Sa-B1; type: cell-based, human; details: PrestoBlue viability assay
Protocol: (§1) All experiments were performed using a robotic pipetting workstation (Hamilton Robotics STAR Let). Cells were seeded at a final cell density of 1875 cells per well in 384-well plates in the triple co-culture (625 cells from each lines) and at 2500 cells per well in the A431 control and A431-2B1 co-culture (1250 cells from both) systems. Co-cultured cells were incubated for 24 h at 37 °C and 5% CO2 under humidified atmosphere prior to the addition of drugs. […] Data were exported to a custom-made program for determining growth inhibition curves for each cell line. In confirmatory screens, compounds were tested with the same method in a nine-point dose response format. For validation, compounds were confirmed in cytotoxicity assays using the PrestoBlue cell viability reagent (ThermoFisher), according to the manufacturer’s instructions.

[3] = system: A431 cells; assay: PrestoBlue-based cytotoxicity assay, A431; type: cell-based, human; details: PrestoBlue viability assay
Protocol: as §1

[4] = system: A431-G2 cells (ABCG2 expressing); assay: Fluorescence-based cytotoxicity assay, ABCG2-expressing A431-G2 mOr; details: triple co-culture, result in words
[5] = system: A431B1 cells; assay: PrestoBlue-based cytotoxicity assay, A431B1; type: cell-based, human; details: PrestoBlue viability assay
Protocol: as §1

[6] = system: A431 cells; assay: Fluorescence-based cytotoxicity assay, parental A431 eGFP
[7] = system: Mes-Sa/Dx5 cells; assay: PrestoBlue-based cytotoxicity assay, Mes-Sa/DX5; type: cell-based, human; details: PrestoBlue viability assay
Protocol: as §1

[8] = system: A431-B1 cells (ABCB1/P-glycoprotein expressing); assay: Fluorescence-based cytotoxicity assay, ABCB1-expressing A431-B1 mCh; details: for IC50: fluorescent protein based assay; for RR (A431B1): resistance ratio = IC50 A431B1 / IC50 parental A431, triple co-culture screen
[9] = system: Mes-Sa/Dx5 cells; assay: Fluorescence-based cytotoxicity assay, Mes-Sa/Dx5 eGFP; details: for IC50: fluorescent protein based assay; for RR (Dx5): resistance ratio = IC50 Mes-Sa/Dx5 / IC50 parental Mes-Sa
[10] = system: Mes-Sa cells; assay: PrestoBlue-based cytotoxicity assay, Mes-Sa; type: cell-based, human; details: PrestoBlue viability assay
Protocol: as §1

[11] = system: Mes-Sa-B1 cells (Pgp overexpressing); assay: Fluorescence-based cytotoxicity assay, Mes-Sa-B1 mOr; details: for IC50: fluorescent protein based assay; for RR (Mes-Sa-B1): resistance ratio = IC50 Mes-Sa-B1 / IC50 parental Mes-Sa, triple co-culture screen
[12] = system: A431G2 cells; assay: PrestoBlue-based cytotoxicity assay, A431G2; type: cell-based, human; details: PrestoBlue viability assay
Protocol: as §1

[13] = target: T1, OATP2B1 (Homo sapiens, UniProt O94956); assay: Inhibition of OATP2B1-mediated Cascade Blue uptake (microplate-based uptake assay, A431-2B1 cells)
T1 sequence (O94956 1-709): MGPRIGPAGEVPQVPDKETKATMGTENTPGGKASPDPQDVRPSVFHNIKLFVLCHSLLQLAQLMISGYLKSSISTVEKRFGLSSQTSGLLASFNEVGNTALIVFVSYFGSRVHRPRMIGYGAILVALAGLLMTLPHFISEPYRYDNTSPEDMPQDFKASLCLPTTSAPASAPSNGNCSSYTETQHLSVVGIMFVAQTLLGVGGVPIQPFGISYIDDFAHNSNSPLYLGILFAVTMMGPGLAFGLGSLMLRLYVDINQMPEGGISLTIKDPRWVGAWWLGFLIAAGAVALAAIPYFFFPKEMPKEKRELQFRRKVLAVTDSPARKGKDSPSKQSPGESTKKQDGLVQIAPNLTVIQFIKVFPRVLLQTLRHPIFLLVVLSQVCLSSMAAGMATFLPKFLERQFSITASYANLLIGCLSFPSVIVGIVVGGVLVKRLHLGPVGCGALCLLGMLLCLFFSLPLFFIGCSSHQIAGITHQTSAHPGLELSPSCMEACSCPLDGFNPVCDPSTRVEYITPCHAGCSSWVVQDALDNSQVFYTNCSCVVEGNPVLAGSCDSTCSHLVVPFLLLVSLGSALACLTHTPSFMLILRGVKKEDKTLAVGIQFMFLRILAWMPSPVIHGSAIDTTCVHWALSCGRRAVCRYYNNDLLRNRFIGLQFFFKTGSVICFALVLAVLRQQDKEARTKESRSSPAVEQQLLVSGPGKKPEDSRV

[14] = system: A431-2B1 cells (OATP2B1 expressing); assay: Fluorescence-based cytotoxicity assay, OATP2B1-expressing A431-2B1 mCh; details: for SR, co-culture / SR, monoculture: IC50 A431 eGFP / IC50 A4312B1 mCh; for SR (A431-2B1 vs parental A431), screening of DTP Oncology Set IV: primary screen, Fig. 4 inset; for SR, co-culture / SR (A431-2B1 vs parental A431), screening of DTP Oncology Set IV: co-culture; for IC50: 9 concentration points, at least 3 replicates
[15] = system: OATP2B1; assay: as above; details: human
[16] = system: Mes-Sa/Dx5 cells
[17] = system: ABCG2; assay: Fluorescence-based cytotoxicity assay, ABCG2-expressing A431-G2 mOr; details: human
[18] = system: ABCB1 (P-glycoprotein); assay: Fluorescence-based cytotoxicity assay, ABCB1-expressing A431-B1 mCh; details: human
[19] = Homo sapiens, A-431, read-out: IC50 (µM) A431 eGFP, co-culture
[20] = Homo sapiens, A-431, read-out: IC50 (µM) A431 eGFP, monoculture
[21] = A431-2B1 mCherry cells (OATP2B1-expressing), monoculture

| SMILES | IC50 [13] | IC50 [6, 19] | IC50 [6, 20] | SR, co-culture [14] | SR, monoculture [14] | SR (A431-2B1 vs parental A431), screening of DTP Oncology Set IV [14] | IC50 at […] [15] | IC50 at […] [15, 21] | RR (A431B1) [8] | RR (Dx5) ([9]; triple co-culture screen) | RR (Mes-Sa-B1) [11] | also measured |
| --- | --- | --- | --- | --- | --- | --- | --- | --- | --- | --- | --- | --- |
| Oc1c(CN2CCCCC2)ccc2cccnc12 [NSC57969] |  |  |  |  |  |  |  |  |  |  |  | IC50 ([1]; read-out: IC50 Mes-Sa, monoculture, monoculture): 5080 nM; IC50 ([1]; read-out: IC50 Mes-Sa, triple co-culture, triple co-culture): 3210 nM; IC50 [2]: 1480 nM; IC50 [3]: 4930 nM; Effect of ABCG2 expression on toxicity (A431-G2 vs parental A431) [4]: did not sensitize; IC50 [5]: 974 nM; IC50 ([6]; read-out: IC50 A431, monoculture, fluorescent protein based assay, monoculture): 5.13 µM; IC50 ([6]; read-out: IC50 A431, triple co-culture, fluorescent protein based assay, triple co-culture): 7.09 µM; IC50 [7]: 815 nM; IC50 ([8]; read-out: IC50 A431B1, monoculture, monoculture): 774 nM; IC50 ([8]; read-out: IC50 A431B1, triple co-culture, triple co-culture): 2780 nM; IC50 ([9]; read-out: IC50 Mes-Sa/DX5, monoculture, monoculture): 951 nM; IC50 ([9]; read-out: IC50 Mes-Sa/DX5, triple co-culture, triple co-culture): 177 nM; IC50 [10]: 4890 nM; IC50 ([11]; read-out: IC50 Mes-Sa-B1, monoculture, monoculture): 2810 nM; IC50 ([11]; read-out: IC50 Mes-Sa-B1, triple co-culture, triple co-culture): 1800 nM; IC50 [12]: 5760 nM |
| CN(Cc1cnc2nc(N)nc(N)c2n1)c1ccc(C(=O)N[C@@H](CCC(=O)O)C(=O)O)cc1 [NSC-740, Methotrexate] | 265000 ± 31400 nM | 0.38 µM | 0.43 µM | 11.78^** | 3.59^** | 9.00 | 30 nM | 120 nM |  |  |  |  |
| CO[C@@]12[C@H](COC(N)=O)C3=C(C(=O)C(C)=C(N)C3=O)N1C[C@@H]1N[C@@H]12 [NSC-26980, Mitomycin] |  |  |  |  |  |  |  |  |  |  |  | SR (Mes-Sa/DX5) [16]: 4.407; SR (Mes-Sa-B1) [11]: 0.56 |
| COc1cc([C@@H]2c3cc4c(cc3[C@@H](O[C@@H]3O[C@@H]5CO[C@@H](c6cccs6)O[C@H]5[C@H](O)[C@H]3O)[C@H]3COC(=O)[C@H]23)OCO4)cc(OC)c1O [NSC-122819, Teniposide] | 4590 ± 400 nM | 0.45 µM | 0.83 µM | 6.02^* | 6.1^** | 4.78 | 70 nM | 140 nM | 5.43 | 75.25 | 41.88 |  |
| Cc1c(N)nc([C@H](CC(N)=O)NC[C@H](N)C(N)=O)nc1C(=O)N[C@H](C(=O)N[C@H](C)[C@@H](O)[C@H](C)C(=O)N[C@H](C(=O)NCCc1nc(-c2nc(C(=O)NCCC[S+](C)C)cs2)cs1)[C@@H](C)O)[C@@H](OC1OC(CO)C(O)C(O)C1OC1OC(CO)C(O)C(OC(N)=O)C1O)c1cnc[nH]1 (stereo partly shown) [NSC-125066, Bleomycin] |  |  |  |  |  |  |  |  |  |  |  | IC50 ([6]; read-out: IC50 (µM) A431 eGFP, co-culture, co-culture with A431-2B1 mCh, 9 concentration points, at least 3 replicates): 7.47 µM; IC50 ([6]; read-out: IC50 (µM) A431 eGFP, monoculture, 9 concentration points, at least 3 replicates): 16.3 µM; IC50 ([13]; read-out: IC50, inhibition of OATP2B1-mediated Cascade Blue (CB) uptake, CB 10 µM, 30 min, average ± SD): 64200 ± 6100 nM; IC50 ([14]; read-out: IC50 (µM) A4312B1 mCh, co-culture, co-culture with A431 eGFP): 0.83 µM; IC50 ([14]; read-out: IC50 (µM) A4312B1 mCh, monoculture): 1.5 µM; SR (Mes-Sa/DX5) ([9]; selectivity ratio = IC50 parental Mes-Sa / IC50 Mes-Sa/Dx5, triple co-culture screen): 57.8 |

Further lines, with some results ahead:

| IC50 [13] | SMILES | IC50 [6, 19] | IC50 [6, 20] | SR, co-culture [14] | SR, monoculture [14] | SR (A431-2B1 vs parental A431), screening of DTP Oncology Set IV [14] | IC50 at […] [15] | IC50 at […] [15, 21] | RR (A431B1) [8] | RR (Dx5) ([9]; triple co-culture screen) | RR (Mes-Sa-B1) [11] | also measured |
| --- | --- | --- | --- | --- | --- | --- | --- | --- | --- | --- | --- | --- |
| 1880 ± 320 nM | COc1cc([C@@H]2c3cc4c(cc3[C@@H](O[C@@H]3O[C@@H]5CO[C@@H](C)O[C@H]5[C@H](O)[C@H]3O)[C@H]3COC(=O)[C@H]23)OCO4)cc(OC)c1O [NSC-141540, Etoposide] | 7.45 µM | 6.42 µM | 9.06^** | 3.2^* | 3.017 | 820 nM | 1990 nM | > 4.14 | > 61.73 | 16.97 | IC50 ([3]; Homo sapiens, A-431): 1190 nM; IC50 at […] [17]: 4050 nM; IC50 at […] ([17]; A431-G2 mOrange cells (ABCG2-expressing), monoculture): 12000 nM; IC50 ([5]; Homo sapiens): 5490 nM; IC50 ([6]; Homo sapiens, A-431, read-out: IC50 A431, monoculture): 6.1 µM; IC50 ([6]; Homo sapiens, A-431, read-out: IC50 A431, triple co-culture): 1.69 µM; IC50 at […] [18]: 13800 nM; IC50 at […] ([18]; A431-B1 mCherry cells (ABCB1-expressing), monoculture): 46300 nM; IC50 ([12]; Homo sapiens): 3420 nM |
| 11300 ± 380 nM | CC(=O)O[C@@]12CO[C@@H]1C[C@H](O)[C@@]1(C)C(=O)[C@H](O)C3=C(C)[C@@H](OC(=O)[C@H](O)[C@@H](NC(=O)OC(C)(C)C)c4ccccc4)C[C@@](O)([C@@H](OC(=O)c4ccccc4)[C@H]21)C3(C)C [NSC-628503, Docetaxel] | 0.08 µM | 0.00097 µM |  | 4.35^* | 4.00 | 2 nM | 0.22 nM | 26.38 | 295.00 | 275.00 |  |
| 124000 ± 6420 nM | CCCCCOC(=O)Nc1nc(=O)n([C@@H]2O[C@H](C)[C@@H](O)[C@H]2O)cc1F [NSC-712807, Capecitabine] | 205 µM | 391 µM | 4.62^** | 3.04^** | 3.41 | 44500 nM | 129000 nM |  |  |  |  |
